Marks after values point to notes of the source that are not given here.
Columns and labels:
[1] = Simulated gastric fluid (SGF) hydrolytic stability assay; type: physicochemical; settings: simulated gastric fluid without pepsin, pH 1.2, 37° C., 1 h, n = 3; for % NRB released, Hydrolytic Stability (simulated gastric fluid): footnote c: compounds not exhibiting vasoconstriction
In short: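 Compounds at 200 μM final (2.5% DMSO) were held 1 h at 37 °C in pepsin-free USP simulated gastric fluid (0.03 M NaCl, pH 1.2 with HCl), n=3. […] was quantified by RP-LCMS.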

[2] = Rat serum assay (release of NRB or NRB analogue); type: in vitro ADME; settings: 80% rat serum, 37° C., 3 h, n = 3
In short: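 Compound (200 μM final) incubated in 80% rat serum diluted with 0.1 M phosphate pH 7.4, 2.5% DMSO, 37 °C for 3 h, n=3, then quenched in ice-cold acetonitrile. NRB or analogue release was quantified by RP-LCMS against external calibration curves, expressed as percent released.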

[3] = Rat liver S9 fraction assay (release of NRB or NRB analogue); type: in vitro ADME, rat (male Sprague-Dawley); settings: 1 mg/mL rat liver S9 fraction, 37° C., 6 h, n = 3
Procedure: The hydrolytic stability of compounds of the invention was also evaluated in vitro using rat liver S9 fraction (20 mg/mL), pooled from male rat (Sprague-Dawley), obtained from Sigma-Aldrich, diluted to 1 mg/mL with phosphate buffer (0.1 M, pH 7.4) and stored at −78° C. Similar assay conditions to those reported by Li Di and co-workers (Int. J. Pharm. 2005, 297, 110-119) were followed [200 μL total volume, 1 mg/mL rat liver S9 fraction (diluting with phosphate buffer (0.1 M, pH 7.4)), at a final compound concentration of 200 μM, 2.5% DMSO overall, 37° C., 6 h, n=3]. The assay protocol followed is as that described above for the rat serum assay, with an adjusted end-point of 6 h.

[4] = system: Sprague Dawley rats; experiment: In vivo lethality, oral gavage; parameters: species or system rat (Sprague Dawley); settings: rat; for Time to Death (min) / Onset of Symptoms: mean time; for Onset of Symptoms: visual signs of distress consistent with NRB-like symptoms; for In vivo lethality (oral): n = 2
In short: (§1)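 Sprague Dawley rats (150-200 g) received compound dissolved in 0.2 M HCl (5% DMSO overall) at the desired dose, by oral gavage or tail-vein i.v. injection. Animals were watched for early toxicity signs every minute (i.v.) or every 15 min (oral).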

[5] = system: rat caudal artery; experiment: Rat caudal artery ring contractile force (vasoconstrictory activity); parameters: species or system rat (male Wistar)
In short: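 Endothelium-denuded caudal artery rings from male Wistar rats were held at 2 g resting tension in Tyrode solution (37° C, pH 7.35, 95% O2/CO2) and isometric force was recorded. Compounds were tested at 50 μM, with contraction expressed as percent of the 90 mM KCl response.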

[6] = system: Sprague Dawley rats; experiment: In vivo lethality, intravenous injection via the tail; parameters: species or system rat (Sprague Dawley); settings: rat
In short: as §1

[7] = system: Sprague Dawley rats; experiment: Palatability (no-choice) trial, peanut butter bait; type: in vivo, rat (Sprague Dawley); settings: 1% w/w toxicant in peanut butter bait, n = 6, 3 male and 3 female rats
Description: In the palatability trials, Sprague Dawley rats (ca. 250 g) were presented with 1% w/w compound (n=6) or 0.5% w/w compound (n=5) in a peanut butter bait, following 3 days ‘pre-baiting’ with a peanut butter formulation free of toxicant.

[8] = system: Sprague Dawley rats; experiment: Palatability (choice) trial, peanut butter bait; type: in vivo, rat (Sprague Dawley); settings: choice of EPA diet (20 g) and bait with 1% w/w toxicant (20 g), 2 days, n = 2; Table 15
[9] = system: Sprague Dawley rats; experiment: Palatability (no-choice) trial, peanut butter bait; type: in vivo, rat (Sprague Dawley); settings: 2% w/w toxicant in peanut butter bait, n = 6, Table 12
[10] = Table 5, compounds of formula (III)

Row | Compound | % NRB released, Hydrolytic Stability (simulated gastric fluid) [1] | % NRB released, Rat Serum [2] [%] | % NRB released, Rat Liver S9 [3] [%] | Time to Death (min) ([4]; 20 mg/Kg) | Onset of Symptoms ([4]; 20 mg/Kg) [min] | In vivo lethality (oral) ([4]; 40 mg/Kg) | Vasoconstriction: maximum contractile effect as a % of 90 mM KCl contraction ([5]; Table 1, compound at 50 μM) [%] | Vasoconstriction: maximum contractile effect as a % of 90 mM KCl contraction ([5]; Table 4, pre-cleavage, n = 3) [%] | In vivo lethality (i.v.) ([6]; 20 mg/Kg, n = 2) | % NRB released, Hydrolytic Stability [1] [%] | Vasoconstriction: maximum contractile effect as a % of 90 mM KCl contraction [5, 10] [%] | Vasoconstriction: maximum contractile effect as a % of 90 mM KCl contraction ([5]; n = 3, pre-cleavage, Table 6) [%] | In vivo lethality (i.v.) ([6]; 20 mg/Kg, n = 2, Table 6) | In vivo lethality (i.v.) ([6]; 10 mg/Kg, n = 2, Table 6) | In vivo lethality (oral) ([4]; 20 mg/Kg) | No of deaths ([7]; Table 11) | No of deaths ([7]; Table 12) | Vasoconstriction: maximum contractile effect as a % of 90 mM KCl contraction ([5]; Table 2, compound at 50 μM) [%] | No of deaths [8] | No of deaths [9]
1 | O=C(C=Cc1ccccc1)OCCCN1C(=O)C2C3C=C(C(O)(c4ccccc4)c4ccccn4)C(C3=C(c3ccccc3)c3ccccn3)C2C1=O (stereo not drawn) [Compound 136, N-3′-Cinnamoyloxypropyl-5-(α-hydroxy-α-2-pyridylbenzyl)-7-(α-2-pyridylbenzylidene)-5-norbornene-2,3-dicarboximide] | 0^c % | 76.5 ± 5.7 | 18.2 ± 2.7 | not lethal | 20 | yes^h | 0 | 0 | yes^f | – | – | – | – | – | – | – | – | – | – | –
2 | O=C(CCCCCCCCC(=O)OCN1C(=O)C2C3C=C(C(O)(c4ccccc4)c4ccccn4)C(C3=C(c3ccccc3)c3ccccn3)C2C1=O)OCN1C(=O)C2C3C=C(C(O)(c4ccccc4)c4ccccn4)C(C3=C(c3ccccc3)c3ccccn3)C2C1=O (stereo not drawn) [Compound 24, 5-(α-Hydroxy-α-2-pyridylbenzyl)-7-(α-2-pyridylbenzylidene)-N-sebacoyloxymethyl-5-norbornene-2,3-dicarboximide dimer] | – | 8.6 ± 0.5 | 6.2 ± 0.2 | – | – | – | – | – | – | 0 | 0 | 0 | no^e | – | – | – | – | – | – | –
3 | O=C(CCCCCCCCC(=O)OCCN1C(=O)C2C3C=C(C(O)(c4ccccc4)c4ccccn4)C(C3=C(c3ccccc3)c3ccccn3)C2C1=O)OCCN1C(=O)C2C3C=C(C(O)(c4ccccc4)c4ccccn4)C(C3=C(c3ccccc3)c3ccccn3)C2C1=O (stereo not drawn) [Compound 141, 5-(α-Hydroxy-α-2-pyridylbenzyl)-7-(α-2-pyridylbenzylidene)-N-2′-sebacoyloxyethyl-5-norbornene-2,3-dicarboximide dimer] | – | <5 | <5 | – | – | – | – | – | – | 0 | 0 | 0 | – | no^f | – | – | – | – | – | –
4 | 5-(α-Hydroxy-α-2-pyridylbenzyl)-N-2′-phenylpropioyloxyethyl-7-(α-2-pyridylbenzylidene)-5-norbornene-2,3-dicarboximide [Compound 123] | 0^c % | 84.5 ± 2.0 | 55.6 ± 4.1 | 35^d min | 15 | yes^h,i | 0 | 0 | yes^f | – | – | – | – | – | yes^h,i | – | – | – | – | –
5 | O=C(OCCN1C(=O)C2C3C=C(C(O)(c4ccccc4)c4ccccn4)C(C3=C(c3ccccc3)c3ccccn3)C2C1=O)c1ccc2ccccc2c1 (stereo not drawn) [Compound 122, 5-(α-Hydroxy-α-2-pyridylbenzyl)-N-[2′-(2″-naphthoyloxy)ethyl]-7-(α-2-pyridylbenzylidene)-5-norbornene-2,3-dicarboximide] | 0^c % | 14.4 ± 3.0 | 14.1 ± 0.5 | – | – | yes^h,i | 0 | 0 | yes^f | – | – | – | – | – | yes^h,i | – | – | – | – | –
6 | CCCCCCCC(=O)OCCN1C(=O)C2C3C=C(C(O)(c4ccccc4)c4ccccn4)C(C3=C(c3ccccc3)c3ccccn3)C2C1=O (stereo not drawn) [Compound 111, 5-(α-Hydroxy-α-2-pyridylbenzyl)-N-2′-octanoyloxyethyl-7-(α-2-pyridylbenzylidene)-5-norbornene-2,3-dicarboximide] | 20^c % | 87.9 ± 0.7 | 48.5 ± 8.5 | >120^e min | 15 | – | 0 | 0 | – | – | – | – | – | – | – | 6/6 | – | – | – | –
7 | CCCCCCCCCCCC(=O)NCCN1C(=O)C2C3C=C(C(O)(c4ccccc4)c4ccccn4)C(C3=C(c3ccccc3)c3ccccn3)C2C1=O (stereo not drawn) [Compound 339, N-2′-Dodecanamidoethyl-5-(α-hydroxy-α-2-pyridylbenzyl)-7-(α-2-pyridylbenzylidene)-5-norbornene-2,3-dicarboximide] | – | – | – | 300^e min | 200 | yes^h | – | 0 | – | – | – | – | – | – | – | – | 3/6 | 0 | 3/12 | 5/6
8 | O=C(OCN1C(=O)C2C3C=C(C(O)(c4ccccc4)c4ccccn4)C(C3=C(c3ccccc3)c3ccccn3)C2C1=O)c1ccc2ccccc2c1 (stereo not drawn) [Compound 20, 5-(α-Hydroxy-α-2-pyridylbenzyl)-2′-naphthoyloxymethyl-7-(α-2-pyridylbenzylidene)-5-norbornene-2,3-dicarboximide] | 0^c % | 31.3 ± 2.7 | 20.2 ± 0.8 | – | – | no^h | 0 | 0 | yes^f | – | – | – | – | – | – | – | – | – | – | –
9 | O=C(OCCN1C(=O)C2C3C=C(C(O)(c4ccccc4)c4ccccn4)C(C3=C(c3ccccc3)c3ccccn3)C2C1=O)C(c1ccccc1)c1ccccc1 (stereo not drawn) [Compound 118] | 0^c % | <5 | 9.0 ± 0.7 | – | – | no^h | 0 | 0 | yes^f | – | – | – | – | – | – | – | – | – | – | –
10 | O=C(CCC(=O)OCCN1C(=O)C2C3C=C(C(O)(c4ccccc4)c4ccccn4)C(C3=C(c3ccccc3)c3ccccn3)C2C1=O)OCCOC(=O)CCC(=O)OCCN1C(=O)C2C3C=C(C(O)(c4ccccc4)c4ccccn4)C(C3=C(c3ccccc3)c3ccccn3)C2C1=O (stereo not drawn) [Compound 144, N-[2′-Ethylenebis(hydrogensuccinoyloxy)ethyl]-5-(α-hydroxy-α-2-pyridylbenzyl)-7-(α-2-pyridylbenzylidene)-5-norbornene-2,3-dicarboximide dimer] | – | 14.5 ± 0.8 | <5 | – | – | – | – | – | – | 0 | 0 | 0 | – | no^f | – | – | – | – | – | –
